Test results taken from patent publication US11339207B2, “Methods and compounds for the treatment or prevention of severe influenza” (priority 2016, dated 2022).
Read-outs that look alike come from different tables or passages of the source.

How the values were obtained:
[1] = test system: PBMCs plus granulocytes stimulated with A549 viral soup; format: cell-based, human; conditions: immune cells, pre-incubation, FIG. 8
[2] = test system: p38MAPK and HSP27 phosphorylation in A549 cells; experiment: Western blotting of p38MAPK and HSP27 phosphorylation in A549 cells after A549 viral soup; format: cell-based, human; conditions: FIG. 6
[3] = test system: HSP27 phosphorylation in HUVEC cells; experiment: Western blotting of HSP27 phosphorylation in HUVEC cells after HBEC viral soup; format: cell-based, human; conditions: pre-incubation
[4] = test system: HSP27 phosphorylation in Peripheral Blood Mononuclear Cells (PBMCs); experiment: Western blotting of HSP27 phosphorylation in immune cells (PBMCs) after A549 viral soup; format: cell-based, human; conditions: pre-incubation, FIG. 8
influenza virus = conditions: 14% among controls, cited from earlier work
[5] = test system: HUVECs stimulated with HBEC viral soup; format: cell-based, human; conditions: for iMax IP10: maximal inhibition, HUVEC, HBEC viral soup, secreted IP10; for levels of IP10 at higher drug concentrations: endothelial cells (HUVECs) stimulated with 70% HBEC viral soup, FIG. 10

Compound: Cc1cc(F)ccc1-c1nc(NC(CO)CO)nc2c1ccc(=O)n2-c1c(F)cccc1F [Dilmapimod, 8-(2,6-difluorophenyl)-2-(1,3-dihydroxypropan-2-ylamino)-4-(4-fluoro-2-methylphenyl)pyrido[2,3-d]pyrimidin-7-one]
- A549 viral soup induced release of CXCL8 [1]: significantly attenuate
- A549 viral soup induced release of IL-1-β [1]: significantly attenuate
- A549 viral soup induced release of IL-6 [1]: significantly attenuate
- A549 viral soup induced release of TNFα [1]: significantly attenuate
- induction of HSP27 phosphorylation by A549 viral soup [2]: dose dependently inhibit
- induction of p38MAPK phosphorylation by A549 viral soup [2]: dose dependently inhibit
- induction of HSP27 phosphorylation by HBEC viral soup [3]: dose dependently inhibit
- induction of HSP27 phosphorylation by A549 viral soup [4]: dose dependently inhibit

Compound: CC[C@H]1OC(=O)[C@H](C)[C@@H](O[C@H]2C[C@@](C)(OC)[C@@H](O)[C@H](C)O2)[C@H](C)[C@@H](O[C@@H]2O[C@H](C)C[C@H](N(C)C)[C@H]2O)[C@](C)(O)C[C@@H](C)C(=O)[C@H](C)[C@@H](O)[C@]1(C)O [EM, erythromycin]
- survival rate of the virus-infected mice at Day 20 of infection (influenza virus; 1.0 mg/kg/d): 42%
- survival rate of the virus-infected mice at Day 20 of infection (influenza virus; 3.3 mg/kg/d): 57%

Compound: CNC(=O)c1ccc(C)c(-n2c(C)cc(OCc3ccc(F)cc3F)c(Br)c2=O)c1 [PH797804, 3-[3-bromo-4-[(2,4-difluorophenyl)methoxy]-6-methyl-2-oxopyridin-1-yl]-N,4-dimethylbenzamide]
- A549 viral soup induced release of CXCL8 [1]: significantly attenuate
- A549 viral soup induced release of IL-1-β [1]: significantly attenuate
- A549 viral soup induced release of IL-6 [1]: significantly attenuate
- A549 viral soup induced release of TNFα [1]: significantly attenuate
- induction of HSP27 phosphorylation by A549 viral soup [2]: dose dependently inhibit
- induction of p38MAPK phosphorylation by A549 viral soup [2]: dose dependently inhibit
- iMax IP10 [5]: 88%
- induction of HSP27 phosphorylation by HBEC viral soup [3]: dose dependently inhibit
- induction of HSP27 phosphorylation by A549 viral soup [4]: dose dependently inhibit

Compound: CC[C@H](C)C(=O)O[C@H]1C[C@H](O)C=C2C=C[C@H](C)[C@H](CC[C@@H](O)C[C@@H](O)CC(=O)O)[C@H]21 [Pravastatin]
- iMax IP10 [5]: 35%

Compound: Nc1ccc2ncnc(NCCc3ccc(Oc4ccccc4)cc3)c2c1 [QNZ (EVP4593)]
- iMax IP10 [5]: 72%

Compound: COc1cc(F)c(F)c(Nc2ccc(I)cc2F)c1NS(=O)(=O)C1(C[C@H](O)CO)CC1 [Refametinib]
- levels of IP10 at higher drug concentrations [5]: appeared to increase levels of IP10

Compound: Selumetinib
- levels of IP10 at higher drug concentrations [5]: appeared to increase levels of IP10
